Results taken from ChEMBL document CHEMBL1821574, “Structure-activity relationships of 4-position diamine quinoline methanols as intermittent preventative treatment (IPT) against Plasmodium falciparum” (J Med Chem, 2011).
≈ marks a conversion by molar mass, not a printed value.

Experiments:
Assay type in all cases: functional
[1] = tested on: Plasmodium berghei; assay: Antimalarial activity against Plasmodium berghei infected in mouse assessed as host survival at 40 mg/kg, po administered as single dose measured on day 31; conditions: 744 h
[2] = tested on: Plasmodium berghei; assay: Antimalarial activity against Plasmodium berghei infected in mouse assessed as host survival at 20 mg/kg, po administered as single dose
[3] = tested on: Plasmodium falciparum; assay: Antimalarial activity against chloroquine, mefloquine and pyrimethamine-resistant Plasmodium falciparum TM91C235 by SYBR Green I-based fluorescence assay
[4] = tested on: Plasmodium berghei; assay: Antimalarial activity against Plasmodium berghei infected in mouse assessed as host survival at 10 mg/kg, po administered as single dose measured on day 31; conditions: 744 h
[5] = tested on: Plasmodium falciparum; assay: Antimalarial activity against chloroquine-resistant and mefloquine-sensitive Plasmodium falciparum W2
[6] = tested on: Plasmodium berghei; assay: Antimalarial activity against Plasmodium berghei infected in mouse assessed as host survival at 40 mg/kg, po administered as single dose
[7] = tested on: Plasmodium berghei; assay: Antimalarial activity against Plasmodium berghei infected in mouse assessed as complete cure at 20 mg/kg, po administered as single dose measured on day 31
[8] = tested on: Plasmodium berghei; assay: Antimalarial activity against Plasmodium berghei infected in mouse assessed as host survival at 20 mg/kg, po administered as single dose measured on day 31; conditions: 744 h
[9] = tested on: Plasmodium berghei; assay: Antimalarial activity against Plasmodium berghei infected in mouse assessed as host survival at 80 mg/kg, po administered as single dose
[10] = tested on: Plasmodium falciparum; assay: Antimalarial activity against chloroquine-sensitive and mefloquine-resistant Plasmodium falciparum D6 by SYBR Green I-based fluorescence assay
[11] = tested on: Plasmodium falciparum; assay: Antimalarial activity against mefloquine-resistant and chloroquine-sensitive Plasmodium falciparum D6
[12] = tested on: Plasmodium berghei; assay: Antimalarial activity against Plasmodium berghei infected in mouse assessed as complete cure at 320 mg/kg, po administered as single dose measured on day 31
[13] = tested on: Plasmodium berghei; assay: Antimalarial activity against Plasmodium berghei infected in mouse assessed as complete cure at 160 mg/kg, po administered as single dose measured on day 31
[14] = tested on: Plasmodium falciparum; assay: Antimalarial activity against chloroquine-resistant and mefloquine-sensitive Plasmodium falciparum W2 assessed as inhibition of [3H]hypoxanthine incorporation by liquid scintillation spectrometry
[15] = tested on: Plasmodium berghei; assay: Antimalarial activity against Plasmodium berghei infected in mouse assessed as host survival at 80 mg/kg, po administered as single dose measured on day 31; conditions: 744 h
[16] = tested on: Plasmodium falciparum; assay: Antimalarial activity against chloroquine, mefloquine and pyrimethamine-resistant Plasmodium falciparum TM91C235 assessed as inhibition of [3H]hypoxanthine incorporation by liquid scintillation spectrometry
[17] = tested on: Plasmodium berghei; assay: Antimalarial activity against Plasmodium berghei infected in mouse assessed as host survival at 5 mg/kg, po administered as single dose
[18] = tested on: Plasmodium berghei; assay: Antimalarial activity against Plasmodium berghei infected in mouse assessed as host survival at 160 mg/kg, po administered as single dose
[19] = tested on: Plasmodium falciparum; assay: Antimalarial activity against chloroquine-sensitive and mefloquine-resistant Plasmodium falciparum D6 assessed as inhibition of [3H]hypoxanthine incorporation by liquid scintillation spectrometry
[20] = tested on: Plasmodium berghei; assay: Antimalarial activity against Plasmodium berghei infected in mouse assessed as complete cure at 80 mg/kg, po administered as single dose measured on day 31
[21] = tested on: Plasmodium berghei; assay: Antimalarial activity against Plasmodium berghei infected in mouse assessed as complete cure at 5 mg/kg, po administered as single dose measured on day 31
[22] = tested on: Plasmodium berghei; assay: Antimalarial activity against Plasmodium berghei infected in mouse assessed as host survival at 10 mg/kg, po administered as single dose
[23] = tested on: Plasmodium berghei; assay: Antimalarial activity against Plasmodium berghei infected in mouse assessed as complete cure at 40 mg/kg, po administered as single dose measured on day 31
[24] = tested on: Plasmodium berghei; assay: Antimalarial activity against Plasmodium berghei infected in mouse assessed as host survival at 160 mg/kg, po administered as single dose measured on day 31; conditions: 744 h
[25] = tested on: Plasmodium falciparum; assay: Antimalarial activity against chloroquine, mefloquine and pyrimethamine-resistant Plasmodium falciparum TM91C235
[26] = tested on: Plasmodium berghei; assay: Antimalarial activity against Plasmodium berghei infected in mouse assessed as host survival at 5 mg/kg, po administered as single dose measured on day 31; conditions: 744 h
[27] = tested on: Plasmodium berghei; assay: Antimalarial activity against Plasmodium berghei infected in mouse assessed as host survival at 320 mg/kg, po administered as single dose measured on day 31; conditions: 744 h
[28] = tested on: Plasmodium berghei; assay: Antimalarial activity against Plasmodium berghei infected in mouse assessed as host survival at 320 mg/kg, po administered as single dose
[29] = tested on: Plasmodium berghei; assay: Antimalarial activity against Plasmodium berghei infected in mouse assessed as complete cure at 10 mg/kg, po administered as single dose measured on day 31
[30] = tested on: Plasmodium falciparum; assay: Antimalarial activity against chloroquine, mefloquine and pyrimethamine-resistant Plasmodium falciparum TM90C2A

SMILES | survival at 40 mg/kg [1] [%] | MST [2] [days] | survival at 10 mg/kg [4] [%] | IC90 [5] [µg/mL] | MST [6] [days] | Activity [7] [%] | survival at 20 mg/kg [8] [%] | MST [9] [days] | IC90 [11] [µg/mL] | Activity [12] [%] | Activity [13] [%] | survival at 80 mg/kg [15] [%] | MST [17] [days] | MST [18] [days] | Activity [20] [%] | Activity [21] [%] | MST [22] [days] | Activity [23] [%] | survival at 160 mg/kg [24] [%] | IC90 [25] [µg/mL] | further results
OC(c1cc(C(F)(F)F)nc2c(C(F)(F)F)cccc12)C1CCCCN1 (centres undefined) [MEFLOQUINE] | 56 | 22 | 0 | 0.0067 (≈ 0.0177 µM) | 26 | 10 | 30 | 28 | 0.016 (≈ 0.0423 µM) | 50 | 20 | 70 | 17 | 27 | 30 | 20 | 15 | 36 | 50 | 0.053 (≈ 0.14 µM) | IC90 [3]: 0.042 µg/mL (≈ 0.111 µM); IC90 [10]: 0.015 µg/mL (≈ 0.0396 µM); IC90 [14]: 0.0067 µg/mL (≈ 0.0177 µM); IC90 [16]: 0.053 µg/mL (≈ 0.14 µM); IC90 [19]: 0.016 µg/mL (≈ 0.0423 µM); survival at 5 mg/kg [26]: 20%; survival at 320 mg/kg [27]: 60%; MST [28]: 24 days; Activity [29]: 0%
O[C@H](CNCCNC1CC1)c1cc(C(F)(F)F)nc2c(C(F)(F)F)cccc12 | 0 | 6.8 | 0 | 0.011 (≈ 0.027 µM) | 10 | 0 | 0 | 16 | 0.027 (≈ 0.0663 µM) | 80 | 0 | 0 | 6.6 | 19 | 0 | 0 | 6.6 | 0 | 0 | 0.077 (≈ 0.189 µM) | IC90 [30]: 0.073 µg/mL (≈ 0.179 µM); survival at 5 mg/kg [26]: 0%; survival at 320 mg/kg [27]: 100%; MST [28]: 30 days; Activity [29]: 0%
